# Assay results from US9725465B2, “Biaryl acetamide compounds and methods of use thereof” (Ambit Biosciences Corporation, priority 2013, dated 2017).
# Tests used:
# FLT3 kinase = FLT3 kinase (Homo sapiens (Human), UniProt P36888); experiment: Competition binding assay (Kd), FLT3; details: competition binding assay
# FLT3-ITD = FLT3-ITD (Homo sapiens (Human), UniProt P36888, INS600HVDFREYEYD); experiment: pFLT3 MSD assay, Ba/F3 FLT3-ITD; assay type: cell-based; details: Ba/F3 FLT3-ITD cells, 2 hours, read-out: BaF3-FLT3-ITD pFlt3 IC50
# Chain of FLT3-ITD (P36888 other isoform, or with tags, fused parts or gaps limits assumed, stated change not applied): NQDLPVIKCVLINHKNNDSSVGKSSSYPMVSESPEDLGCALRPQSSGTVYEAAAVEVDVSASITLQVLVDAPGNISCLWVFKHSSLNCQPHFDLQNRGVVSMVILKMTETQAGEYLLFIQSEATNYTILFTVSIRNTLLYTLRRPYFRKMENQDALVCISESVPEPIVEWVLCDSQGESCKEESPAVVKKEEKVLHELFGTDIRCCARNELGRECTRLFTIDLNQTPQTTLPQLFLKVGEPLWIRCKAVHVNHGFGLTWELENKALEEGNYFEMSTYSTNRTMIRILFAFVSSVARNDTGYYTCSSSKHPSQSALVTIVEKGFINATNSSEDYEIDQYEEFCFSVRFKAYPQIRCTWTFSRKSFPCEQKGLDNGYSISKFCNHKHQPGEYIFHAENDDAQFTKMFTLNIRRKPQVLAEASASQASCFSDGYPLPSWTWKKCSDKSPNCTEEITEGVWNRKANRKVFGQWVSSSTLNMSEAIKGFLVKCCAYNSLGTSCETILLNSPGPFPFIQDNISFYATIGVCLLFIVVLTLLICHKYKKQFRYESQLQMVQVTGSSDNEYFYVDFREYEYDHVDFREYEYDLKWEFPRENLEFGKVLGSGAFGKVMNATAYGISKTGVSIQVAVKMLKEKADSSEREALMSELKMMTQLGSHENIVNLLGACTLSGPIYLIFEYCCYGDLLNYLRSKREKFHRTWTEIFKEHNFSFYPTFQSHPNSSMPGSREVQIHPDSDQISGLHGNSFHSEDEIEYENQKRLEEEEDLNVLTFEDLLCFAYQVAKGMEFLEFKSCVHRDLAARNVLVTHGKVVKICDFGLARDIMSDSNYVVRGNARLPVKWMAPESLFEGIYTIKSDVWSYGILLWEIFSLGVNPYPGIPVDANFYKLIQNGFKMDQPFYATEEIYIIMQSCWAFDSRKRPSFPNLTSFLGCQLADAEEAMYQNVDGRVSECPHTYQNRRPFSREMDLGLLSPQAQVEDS
# KIT kinase = KIT kinase (Homo sapiens (Human), UniProt P10721); experiment: Competition binding assay (Kd), KIT; details: competition binding assay
# Chain of KIT kinase (P10721 26-976): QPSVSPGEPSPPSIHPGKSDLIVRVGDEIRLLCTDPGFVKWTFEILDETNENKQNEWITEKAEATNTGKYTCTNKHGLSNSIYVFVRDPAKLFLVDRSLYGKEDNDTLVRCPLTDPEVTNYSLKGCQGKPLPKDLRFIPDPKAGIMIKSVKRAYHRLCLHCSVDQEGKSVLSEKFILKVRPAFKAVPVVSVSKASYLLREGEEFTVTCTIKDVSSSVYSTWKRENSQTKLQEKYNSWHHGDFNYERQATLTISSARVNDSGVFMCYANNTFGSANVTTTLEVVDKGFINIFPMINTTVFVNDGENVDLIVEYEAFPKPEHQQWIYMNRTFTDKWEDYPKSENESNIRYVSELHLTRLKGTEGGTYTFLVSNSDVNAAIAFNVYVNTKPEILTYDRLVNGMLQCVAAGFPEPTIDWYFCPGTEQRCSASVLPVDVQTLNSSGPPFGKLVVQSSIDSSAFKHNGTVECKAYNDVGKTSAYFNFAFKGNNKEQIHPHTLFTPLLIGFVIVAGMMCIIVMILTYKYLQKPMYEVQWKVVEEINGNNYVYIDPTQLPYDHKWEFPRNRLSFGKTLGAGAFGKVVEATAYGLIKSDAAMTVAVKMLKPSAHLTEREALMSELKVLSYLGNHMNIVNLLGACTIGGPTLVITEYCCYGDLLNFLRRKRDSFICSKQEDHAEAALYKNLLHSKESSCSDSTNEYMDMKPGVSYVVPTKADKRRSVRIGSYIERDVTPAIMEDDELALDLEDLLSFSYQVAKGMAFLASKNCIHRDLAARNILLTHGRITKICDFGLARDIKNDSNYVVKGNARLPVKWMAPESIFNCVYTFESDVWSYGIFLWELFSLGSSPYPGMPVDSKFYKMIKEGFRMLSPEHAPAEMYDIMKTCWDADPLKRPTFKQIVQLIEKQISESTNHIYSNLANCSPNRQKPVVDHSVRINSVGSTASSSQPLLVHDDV
# Procedure, shortened: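 Kd derived from eleven-point threefold serial dilutions of compound competing with bead-bound ligand for kinase; bound kinase eluted and measured by quantitative PCR. Kinase supplied either as a T7 phage fusion or expressed in HEK-293 cells with a DNA tag; DMSO served as control.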
# Chain of FLT3 kinase (P36888 27-993): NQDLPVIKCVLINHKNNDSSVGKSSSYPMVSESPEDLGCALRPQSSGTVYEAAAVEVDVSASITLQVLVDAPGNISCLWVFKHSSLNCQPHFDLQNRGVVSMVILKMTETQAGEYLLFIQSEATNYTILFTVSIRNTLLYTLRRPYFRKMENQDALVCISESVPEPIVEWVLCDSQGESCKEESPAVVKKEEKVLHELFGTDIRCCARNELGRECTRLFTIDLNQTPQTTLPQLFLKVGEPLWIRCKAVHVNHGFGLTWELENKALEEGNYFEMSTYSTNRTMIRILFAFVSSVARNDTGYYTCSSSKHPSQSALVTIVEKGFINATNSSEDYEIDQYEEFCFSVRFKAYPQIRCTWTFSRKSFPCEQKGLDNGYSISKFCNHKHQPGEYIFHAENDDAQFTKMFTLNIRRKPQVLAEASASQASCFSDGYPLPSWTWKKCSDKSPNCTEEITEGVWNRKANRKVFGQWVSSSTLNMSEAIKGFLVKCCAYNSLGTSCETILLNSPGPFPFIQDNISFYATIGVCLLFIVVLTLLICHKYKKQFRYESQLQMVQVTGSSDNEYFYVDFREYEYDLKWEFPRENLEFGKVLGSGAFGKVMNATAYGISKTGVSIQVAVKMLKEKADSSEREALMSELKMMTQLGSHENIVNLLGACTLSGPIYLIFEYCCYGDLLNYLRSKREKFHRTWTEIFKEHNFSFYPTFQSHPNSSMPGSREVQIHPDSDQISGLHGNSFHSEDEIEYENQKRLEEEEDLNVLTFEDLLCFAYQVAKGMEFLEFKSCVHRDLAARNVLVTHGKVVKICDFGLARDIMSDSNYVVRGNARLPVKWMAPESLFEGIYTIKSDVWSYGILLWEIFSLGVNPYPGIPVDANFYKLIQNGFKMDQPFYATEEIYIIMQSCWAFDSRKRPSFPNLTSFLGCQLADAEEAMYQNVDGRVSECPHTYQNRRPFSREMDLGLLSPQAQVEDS
Kd (FLT3 kinase) [nM],IC50 (FLT3-ITD) [nM],Kd (KIT kinase) [nM],Compound
< 5,< 10,5 to 20,"O=C(Cc1ccc(-c2cnc3cc4c(cc3n2)OCCO4)cc1F)Nc1cc(C2(C(F)(F)F)CC2)on1 [Example 76, 2-(4-(2,3-dihydro-[1,4]dioxino[2,3-g]quinoxalin-7-yl)-2-fluorophenyl)-N-(5-(1-(trifluoromethyl)cyclopropyl)isoxazol-3-yl)acetamide]"
< 5,< 10,< 5,"COc1cc2nc(-c3ccc(CC(=O)Nc4cc(C5(C(F)(F)F)CC5)on4)c(F)c3)cnc2cc1O [Example 78, 2-(2-fluoro-4-(6-hydroxy-7-methoxyquinoxalin-2-yl)phenyl)-N-(5-(1-(trifluoromethyl)cyclopropyl)isoxazol-3-yl)acetamide]"
< 5,< 10,< 5,"COc1cc2nc(-c3ccc(CC(=O)Nc4cc(C5(C(F)(F)F)CC5)on4)c(F)c3)cnc2cc1OCCN1CCOCC1 [Example 79, 2-(2-fluoro-4-(7-methoxy-6-(2-morpholinoethoxy)quinoxalin-2-yl)phenyl)-N-(5-(1-(trifluoromethyl)cyclopropyl)isoxazol-3-yl)acetamide]"
< 5,< 10,< 5,"COc1cc2ncc(-c3ccc(CC(=O)Nc4cc(C5(C(F)(F)F)CC5)on4)c(F)c3)nc2cc1OCCO [Example 80, 2-(2-fluoro-4-(7-(2-hydroxyethoxy)-6-methoxyquinoxalin-2-yl)phenyl)-N-(5-(1-(trifluoromethyl)cyclopropyl)isoxazol-3-yl)acetamide]"
< 5,< 10,< 5,"CCOc1cc2ncc(-c3ccc(CC(=O)Nc4cc(C5(C(F)(F)F)CC5)on4)c(F)c3)cc2cc1OC [Example 86, 2-(4-(7-ethoxy-6-methoxyquinolin-3-yl)-2-fluorophenyl)-N-(5-(1-(trifluoromethyl)cyclopropyl)isoxazol-3-yl)acetamide]"
< 5,< 10,< 5,"COc1cc2cc(-c3ccc(CC(=O)Nc4cc(C5(C(F)(F)F)CC5)on4)c(F)c3)cnc2cc1OCCO [Example 88, 2-(2-fluoro-4-(7-(2-hydroxyethoxy)-6-methoxyquinolin-3-yl)phenyl)-N-(5-(1-(trifluoromethyl)cyclopropyl)isoxazol-3-yl)acetamide]"
< 5,< 10,< 5,"COc1cc2nc(-c3ccc(CC(=O)Nc4cc(C5(C(F)(F)F)CC5)on4)c(F)c3)cnc2cc1OC1CN(C)C1 [Example 90, 2-(2-fluoro-4-(7-methoxy-6-((1-methylazetidin-3-yl)oxy)quinoxalin-2-yl)phenyl)-N-(5-(1-(trifluoromethyl)cyclopropyl)isoxazol-3-yl)acetamide]"
< 5,< 10,< 5,"COc1cc2cc(-c3ccc(CC(=O)Nc4cc(C(C)(C)C(F)(F)F)on4)c(F)c3)cnc2cc1OCCO [Example 91, 2-(2-fluoro-4-(7-(2-hydroxyethoxy)-6-methoxyquinolin-3-yl)phenyl)-N-(5-(1,1,1-trifluoro-2-methylpropan-2-yl)isoxazol-3-yl)acetamide]"
< 5,< 10,< 5,"CC(C)(C)c1cc(NC(=O)Cc2ccc(-c3cnc4[nH]cc(C5(O)COC5)c4c3)cc2)no1 [Example 97, N-(5-tert-butylisoxazol-3-yl)-2-[4-[3-(3-hydroxyoxetan-3-yl)-1H-pyrrolo[2,3-b]pyridin-5-yl]phenyl]acetamide]"
< 5,< 10,< 5,"O=C(Cc1ccc(-c2cnc3nn4c(c3c2)OC(CO)C4)cc1F)Nc1cc(C2(C(F)(F)F)CC2)on1 (stereo not drawn) [Example 98, 2-[2-fluoro-4-[2-(hydroxy-methyl)-2,3-dihydro-oxazolo[3,4]pyrazolo[1,3-b]pyridin-8-yl]phenyl]-N-[5-[1-(trifluoro-methyl)cyclopropyl]isoxazol-3-yl]acetamide]"
< 5,< 10,< 5,"CN1CCN(C(=O)c2cc3cc(-c4ccc(CC(=O)Nc5cc(C(C)(C)C)on5)cc4)cnc3[nH]2)CC1 [Example 99, N-(5-tert-butylisoxazol-3-yl)-2-[4-[2-(4-methylpiperazine-1-carbonyl)-1H-pyrrolo[2,3-b]pyridin-5-yl]phenyl]acetamide]"
< 5,< 10,5 to 20,"CN(C)CCNC(=O)c1n[nH]c2ncc(-c3ccc(CC(=O)Nc4cc(C(C)(C)C)on4)cc3)cc12 [Example 100, 5-[4-[2-[(5-tert-butylisoxazol-3-yl)amino]-2-oxo-ethyl]phenyl]-N-[2-(dimethylamino)ethyl]-1H-pyrazolo[3,4-b]pyridine-3-carboxamide]"
< 5,< 10,< 5,"CC(C)(C)c1cc(NC(=O)Cc2ccc(-c3cnc4[nH]nc(-n5nccn5)c4c3)cc2)no1 [Example 101, N-(5-tert-butylisoxazol-3-yl)-2-[4-[3-(triazol-2-yl)-1H-pyrazolo[3,4-b]pyridin-5-yl]phenyl]acetamide]"
< 5,< 10,< 5,"O=C(Cc1ccc(-c2cnc3[nH]nc(OCC(F)F)c3c2)cc1F)Nc1cc(C2(C(F)(F)F)CC2)on1 [Example 102, 2-[4-[3-(2,2-difluoroethoxy)-1H-pyrazolo[3,4-b]pyridin-5-yl]-2-fluoro-phenyl]-N-[5-[1-(trifluoro-methyl)cyclopropyl]isoxazol-3-yl]acetamide]"
< 5,< 10,< 5,"CC(C)(C)c1cc(NC(=O)Cc2ccc(-c3cnc4[nH]nc(-n5ccnn5)c4c3)cc2)no1 [Example 103, N-(5-tert-butylisoxazol-3-yl)-2-[4-[3-(triazol-1-yl)-1H-pyrazolo[3,4-b]pyridin-5-yl]phenyl]acetamide]"
< 5,< 10,< 5,"O=C(Cc1ccc(-c2cnc3[nH]nc(OCCF)c3c2)cc1F)Nc1cc(C2(C(F)(F)F)CC2)on1 [Example 104, 2-[2-fluoro-4-[3-(2-fluoroethoxy)-1H-pyrazolo[3,4-b]pyridin-5-yl]phenyl]-N-[5-[1-(trifluoro-methyl)cyclopropyl]isoxazol-3-yl]acetamide]"
< 5,10 to 20,< 5,"O=C(Cc1ccc(-c2cnc3[nH]c(C(=O)O)cc3c2)cc1F)Nc1cc(C2(C(F)(F)F)CC2)on1 [Example 106, 5-[3-fluoro-4-[2-oxo-2-[[5-[1-(trifluoromethyl)cyclo-propyl]isoxazol-3-yl]amino]ethyl]phenyl]-1H-pyrrolo[2,3-b]pyridine-2-carboxylic acid]"
< 5,< 10,< 5,"CS(=O)(=O)CCNC(=O)c1cc2cc(-c3ccc(CC(=O)Nc4cc(C5(C(F)(F)F)CC5)on4)c(F)c3)cnc2[nH]1 [Example 107, 5-[3-fluoro-4-[2-oxo-2-[[5-[1-(trifluoromethyl)cyclo-propyl]isoxazol-3-yl]amino]ethyl]phenyl]-N-(2-methylsulfonylethyl)-1H-pyrrolo[2,3-b]pyridine-2-carboxamide]"
< 5,< 10,< 5,"CN(C)CCNC(=O)c1cc2cc(-c3ccc(CC(=O)Nc4cc(C5(C(F)(F)F)CC5)on4)c(F)c3)cnc2[nH]1 [Example 108, N-[2-(dimethylamino)ethyl]-5-[3-fluoro-4-[2-oxo-2-[[5-[1-(trifluoromethyl)cyclo-propyl]isoxazol-3-yl]amino]ethyl]phenyl]-1H-pyrrolo[2,3-b]pyridine-2-carboxamide]"
< 5,< 10,< 5,"Cn1cc(-c2n[nH]c3ncc(-c4ccc(CC(=O)Nc5cc(C(C)(C)C)on5)cc4)cc23)cn1 [Example 109, N-(5-tert-butylisoxazol-3-yl)-2-[4-[3-(1-methylpyrazol-4-yl)-1H-pyrazolo[3,4-b]pyridin-5-yl]phenyl]acetamide]"
< 5,< 10,< 5,"CN(C)C1CCN(C(=O)c2cc3cc(-c4ccc(CC(=O)Nc5cc(C6(C(F)(F)F)CC6)on5)c(F)c4)cnc3[nH]2)C1 (stereo not drawn) [Example 110, 2-[4-[2-[3-(dimethylamino)pyrrolidine-1-carbonyl]-1H-pyrrolo[2,3-b]pyridin-5-yl]-2-fluoro-phenyl]-N-[5-[1-(trifluoro-methyl)cyclopropyl]isoxazol-3-yl]acetamide]"
< 5,< 10,< 5,"O=C(Cc1ccc(-c2cnc3[nH]c(C(=O)N4CC(O)C4)cc3c2)cc1F)Nc1cc(C2(C(F)(F)F)CC2)on1 [Example 111, 2-[2-fluoro-4-[2-(3-hydroxyazetidine-1-carbonyl)-1H-pyrrolo[2,3-b]pyridin-5-yl]phenyl]-N-[5-[1-(trifluoro-methyl)cyclopropyl]isoxazol-3-yl]acetamide]"
< 5,< 10,< 5,"O=C(Cc1ccc(-c2cnc3[nH]c(C(=O)NC4CNC4)cc3c2)cc1F)Nc1cc(C2(C(F)(F)F)CC2)on1 [Example 112, N-(azetidin-3-yl)-5-[3-fluoro-4-[2-oxo-2-[[5-[1-(trifluoromethyl)cyclo-propyl]isoxazol-3-yl]amino]ethyl]phenyl]-1H-pyrrolo[2,3-b]pyridine-2-carboxamide]"
< 5,< 10,< 5,"CN1CC(NC(=O)c2cc3cc(-c4ccc(CC(=O)Nc5cc(C6(C(F)(F)F)CC6)on5)c(F)c4)cnc3[nH]2)C1 [Example 113, 5-[3-fluoro-4-[2-oxo-2-[[5-[1-(trifluoromethyl)cyclo-propyl]isoxazol-3-yl]amino]ethyl]phenyl]-N-(1-methylazetidin-3-yl)-1H-pyrrolo[2,3-b]pyridine-2-carboxamide]"
